Calls of active or inactive are those of the source. The rule behind the calls is not given here.
Key:
Homo sapiens = organism: Homo sapiens; test: Effect on hippo signaling protein in human COLO320DM cells assessed as change in AMOTL2 expression at 0.033 to 1 uM measured after 48 hrs by RT-PCR analysis; type: cell-based
COLO 320DM = test: Antitumor activity against human COLO320DM cells xenografted in mouse assessed as tumor growth inhibition at 150 mg/kg, ip administered twice daily for 11 days relative to control; type: functional; conditions: 264 h, read-out: TGI
[1] = target: Beta-2 adrenergic receptor (Homo sapiens) (UniProt P07550); test: Displacement of [3H]CGP-12177 from full-length recombinant human beta2 receptor expressed in CHO cells co-expressing NBR1 at 10 uM measured after 120 mins by scintillation counting method relative to control; type: cell-based
Beta-2 adrenergic receptor (Homo sapiens), sequence (P07550 whole entry, looked up): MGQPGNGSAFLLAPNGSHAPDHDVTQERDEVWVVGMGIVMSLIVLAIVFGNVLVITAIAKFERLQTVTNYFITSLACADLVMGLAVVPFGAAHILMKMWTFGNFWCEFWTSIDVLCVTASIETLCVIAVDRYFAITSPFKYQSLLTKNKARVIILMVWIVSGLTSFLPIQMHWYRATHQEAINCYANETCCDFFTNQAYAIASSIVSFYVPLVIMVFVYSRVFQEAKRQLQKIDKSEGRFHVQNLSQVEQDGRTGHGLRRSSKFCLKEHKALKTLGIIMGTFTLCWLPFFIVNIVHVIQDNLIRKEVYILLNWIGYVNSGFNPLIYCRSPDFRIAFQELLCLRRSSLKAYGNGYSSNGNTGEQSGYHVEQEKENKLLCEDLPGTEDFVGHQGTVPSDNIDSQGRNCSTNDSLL

[2] = target: Endothelin-1 receptor (Homo sapiens) (UniProt P25101); test: Displacement of [125I]Endothelin1 from full-length recombinant human ETA receptor expressed in CHOK1 cells at 10 uM measured after 120 mins by scintillation counting method relative to control; type: cell-based
MAOA = MAOA (Homo sapiens, UniProt P21397); test: Inhibition of full-length recombinant human MAOA expressed in insect cells at 10 uM using kynuramine as substrate preincubated for 15 mins followed by substrate addition and measured after 60 mins by spectrofluorimetric method relative to control; conditions: probe kynuramine
MAOA, sequence (P21397 whole entry): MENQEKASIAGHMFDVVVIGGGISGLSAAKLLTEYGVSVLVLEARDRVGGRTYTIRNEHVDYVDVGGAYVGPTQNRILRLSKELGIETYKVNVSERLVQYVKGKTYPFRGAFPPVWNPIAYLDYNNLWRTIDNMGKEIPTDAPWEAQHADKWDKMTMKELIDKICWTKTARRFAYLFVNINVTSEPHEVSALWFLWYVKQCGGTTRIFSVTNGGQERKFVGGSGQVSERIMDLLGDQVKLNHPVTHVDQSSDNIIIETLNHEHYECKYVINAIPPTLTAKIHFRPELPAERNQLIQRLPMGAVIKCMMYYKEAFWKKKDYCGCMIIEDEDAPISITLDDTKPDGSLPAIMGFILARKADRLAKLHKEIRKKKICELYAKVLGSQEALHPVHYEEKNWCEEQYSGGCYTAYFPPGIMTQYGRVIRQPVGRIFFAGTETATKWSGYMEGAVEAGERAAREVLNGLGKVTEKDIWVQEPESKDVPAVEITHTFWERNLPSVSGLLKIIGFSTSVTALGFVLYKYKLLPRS

[3] = target: cGMP-inhibited 3',5'-cyclic phosphodiesterase 3A (Homo sapiens) (UniProt Q14432); test: Inhibition of full-length recombinant human PDE3A at 10 uM using FAM-cAMP as substrate measured after 30 mins by spectrofluorimetric method relative to control
[4] = Half life in ICR mouse at 50 mg/kg, ip; type: ADME, organism-based; conditions: in vivo
[5] = target: 3',5'-cyclic-AMP phosphodiesterase 4D (Homo sapiens) (UniProt Q08499); test: Inhibition of full-length recombinant human PDE4D2 expressed in Sf9 insect cells at 10 uM using FAM-cAMP as substrate preincubated for 15 mins followed by substrate addition and measured after 15 mins by spectrofluorimetric method relative to control
3',5'-cyclic-AMP phosphodiesterase 4D (Homo sapiens), sequence (Q08499 whole entry): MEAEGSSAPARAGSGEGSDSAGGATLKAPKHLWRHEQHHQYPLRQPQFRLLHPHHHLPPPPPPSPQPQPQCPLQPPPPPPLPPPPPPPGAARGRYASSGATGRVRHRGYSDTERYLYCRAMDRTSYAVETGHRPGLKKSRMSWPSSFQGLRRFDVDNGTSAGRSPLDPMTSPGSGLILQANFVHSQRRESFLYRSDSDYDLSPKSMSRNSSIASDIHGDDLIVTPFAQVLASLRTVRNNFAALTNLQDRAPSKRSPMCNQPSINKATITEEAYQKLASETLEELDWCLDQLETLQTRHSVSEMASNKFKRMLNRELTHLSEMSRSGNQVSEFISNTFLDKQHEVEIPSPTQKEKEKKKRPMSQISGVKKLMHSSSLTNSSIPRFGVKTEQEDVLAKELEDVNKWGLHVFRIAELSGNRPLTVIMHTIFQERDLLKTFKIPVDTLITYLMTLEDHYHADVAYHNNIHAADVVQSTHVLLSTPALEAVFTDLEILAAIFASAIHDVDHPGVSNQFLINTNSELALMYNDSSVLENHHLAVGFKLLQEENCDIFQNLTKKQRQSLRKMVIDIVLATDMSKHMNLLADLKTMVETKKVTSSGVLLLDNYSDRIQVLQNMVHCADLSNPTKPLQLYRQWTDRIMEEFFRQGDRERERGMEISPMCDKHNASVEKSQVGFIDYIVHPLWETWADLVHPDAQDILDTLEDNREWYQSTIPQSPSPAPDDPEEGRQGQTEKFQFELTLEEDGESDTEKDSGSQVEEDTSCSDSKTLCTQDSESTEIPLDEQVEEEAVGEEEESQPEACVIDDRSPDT

[6] = target: D(1A) dopamine receptor (Homo sapiens) (UniProt P21728); test: Displacement of [3H]SCH-23390 from full-length recombinant human D1 receptor expressed in CHO cells at 10 uM measured after 120 mins by scintillation counting method relative to control; type: cell-based
[7] = target: Delta-type opioid receptor (Homo sapiens) (UniProt P41143); test: Displacement of [3H]naltrindole from full-length recombinant human DOR expressed in HEK293 cells at 10 uM measured after 60 mins by scintillation counting method relative to control; type: cell-based
Delta-type opioid receptor (Homo sapiens), sequence (P41143 whole entry): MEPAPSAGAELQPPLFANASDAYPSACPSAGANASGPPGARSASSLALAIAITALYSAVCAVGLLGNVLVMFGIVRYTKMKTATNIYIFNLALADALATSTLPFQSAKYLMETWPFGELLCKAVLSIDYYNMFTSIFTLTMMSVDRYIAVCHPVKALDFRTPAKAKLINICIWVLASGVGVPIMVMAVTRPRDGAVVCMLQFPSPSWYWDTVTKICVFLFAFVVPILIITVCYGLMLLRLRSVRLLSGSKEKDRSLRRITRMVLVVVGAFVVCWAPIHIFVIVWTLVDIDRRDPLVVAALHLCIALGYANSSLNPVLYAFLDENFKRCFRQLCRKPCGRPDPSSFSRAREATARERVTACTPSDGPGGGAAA

[8] = target: Tankyrase 1/2 (Homo sapiens) (UniProt Q9H2K2+O95271); test: Inhibition of TNKS/TNKS2 in human COLO320DM cells assessed as upregulation of AXIN2 expression at 0.1 uM measured after 16 hrs by Western blot analysis relative to G007-LK; type: cell-based
Tankyrase 1/2 (Homo sapiens), sequence (O95271 whole entry, looked up): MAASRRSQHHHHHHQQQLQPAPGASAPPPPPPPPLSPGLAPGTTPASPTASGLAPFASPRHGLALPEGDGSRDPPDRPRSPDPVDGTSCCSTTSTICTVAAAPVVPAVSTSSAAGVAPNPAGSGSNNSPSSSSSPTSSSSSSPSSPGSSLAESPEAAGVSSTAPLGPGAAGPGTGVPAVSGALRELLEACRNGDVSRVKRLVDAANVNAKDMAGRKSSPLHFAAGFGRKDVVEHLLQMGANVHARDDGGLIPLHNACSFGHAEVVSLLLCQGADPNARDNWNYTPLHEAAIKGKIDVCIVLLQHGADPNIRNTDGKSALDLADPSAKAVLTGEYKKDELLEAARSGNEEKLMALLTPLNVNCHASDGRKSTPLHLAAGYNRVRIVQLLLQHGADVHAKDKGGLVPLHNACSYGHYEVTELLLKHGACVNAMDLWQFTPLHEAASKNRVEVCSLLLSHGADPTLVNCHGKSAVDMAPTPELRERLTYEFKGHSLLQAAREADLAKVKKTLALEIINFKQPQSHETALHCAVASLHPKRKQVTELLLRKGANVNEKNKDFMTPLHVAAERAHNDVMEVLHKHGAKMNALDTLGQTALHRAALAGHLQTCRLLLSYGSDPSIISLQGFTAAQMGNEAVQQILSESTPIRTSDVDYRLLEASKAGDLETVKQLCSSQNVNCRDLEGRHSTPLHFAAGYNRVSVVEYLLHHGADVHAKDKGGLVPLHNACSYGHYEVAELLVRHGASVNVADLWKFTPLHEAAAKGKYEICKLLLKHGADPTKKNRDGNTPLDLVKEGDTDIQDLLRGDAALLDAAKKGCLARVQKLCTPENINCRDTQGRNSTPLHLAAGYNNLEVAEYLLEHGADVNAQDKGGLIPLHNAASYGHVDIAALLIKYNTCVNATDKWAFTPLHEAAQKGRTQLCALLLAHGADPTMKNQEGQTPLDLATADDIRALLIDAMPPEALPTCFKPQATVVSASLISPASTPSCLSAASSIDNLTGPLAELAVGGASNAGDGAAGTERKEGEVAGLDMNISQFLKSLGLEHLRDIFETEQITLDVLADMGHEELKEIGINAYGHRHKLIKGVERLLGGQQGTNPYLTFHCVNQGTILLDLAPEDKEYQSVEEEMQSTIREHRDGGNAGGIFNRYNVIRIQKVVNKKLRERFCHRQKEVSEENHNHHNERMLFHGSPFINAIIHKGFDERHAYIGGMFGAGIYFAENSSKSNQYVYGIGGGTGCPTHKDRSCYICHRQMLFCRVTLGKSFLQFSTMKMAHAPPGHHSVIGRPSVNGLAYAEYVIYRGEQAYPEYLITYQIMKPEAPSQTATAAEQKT
Tankyrase 1/2 (Homo sapiens), sequence (Q9H2K2 whole entry, looked up): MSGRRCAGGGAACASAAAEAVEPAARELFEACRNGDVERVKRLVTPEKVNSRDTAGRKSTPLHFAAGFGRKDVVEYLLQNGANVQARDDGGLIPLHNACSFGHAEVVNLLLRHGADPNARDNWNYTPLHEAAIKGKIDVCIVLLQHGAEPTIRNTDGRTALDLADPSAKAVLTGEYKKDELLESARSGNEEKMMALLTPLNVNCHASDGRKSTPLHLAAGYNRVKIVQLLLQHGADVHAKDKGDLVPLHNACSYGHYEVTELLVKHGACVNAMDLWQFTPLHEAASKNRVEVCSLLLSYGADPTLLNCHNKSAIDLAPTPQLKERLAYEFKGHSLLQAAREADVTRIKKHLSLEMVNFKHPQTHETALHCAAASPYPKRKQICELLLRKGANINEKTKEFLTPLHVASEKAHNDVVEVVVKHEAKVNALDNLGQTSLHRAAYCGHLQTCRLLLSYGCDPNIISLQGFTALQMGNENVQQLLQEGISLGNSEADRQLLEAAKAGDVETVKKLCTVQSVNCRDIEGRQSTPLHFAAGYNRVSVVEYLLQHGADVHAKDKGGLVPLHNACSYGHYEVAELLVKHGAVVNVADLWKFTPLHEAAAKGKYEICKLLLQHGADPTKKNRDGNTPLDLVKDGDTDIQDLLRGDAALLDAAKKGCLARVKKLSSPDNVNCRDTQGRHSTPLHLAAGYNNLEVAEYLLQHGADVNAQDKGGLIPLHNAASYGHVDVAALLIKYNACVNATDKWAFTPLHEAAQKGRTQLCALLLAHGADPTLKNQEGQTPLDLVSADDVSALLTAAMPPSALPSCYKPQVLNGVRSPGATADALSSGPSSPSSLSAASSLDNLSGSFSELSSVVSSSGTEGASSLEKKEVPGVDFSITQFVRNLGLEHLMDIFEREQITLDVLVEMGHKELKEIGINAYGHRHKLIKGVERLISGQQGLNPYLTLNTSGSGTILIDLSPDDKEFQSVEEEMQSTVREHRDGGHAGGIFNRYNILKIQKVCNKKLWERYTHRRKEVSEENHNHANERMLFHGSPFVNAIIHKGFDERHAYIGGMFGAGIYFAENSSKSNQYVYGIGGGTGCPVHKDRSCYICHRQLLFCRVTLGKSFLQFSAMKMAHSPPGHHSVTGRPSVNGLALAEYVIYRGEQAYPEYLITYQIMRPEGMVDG

[9] = target: Muscarinic acetylcholine receptor M1 (Homo sapiens) (UniProt P11229); test: Displacement of [3H]N-Methylscopolamine from full-length recombinant human M1 receptor expressed in CHOK1 cells at 10 uM measured after 120 mins by scintillation counting method relative to control; type: cell-based
Muscarinic acetylcholine receptor M1 (Homo sapiens), sequence (P11229 whole entry): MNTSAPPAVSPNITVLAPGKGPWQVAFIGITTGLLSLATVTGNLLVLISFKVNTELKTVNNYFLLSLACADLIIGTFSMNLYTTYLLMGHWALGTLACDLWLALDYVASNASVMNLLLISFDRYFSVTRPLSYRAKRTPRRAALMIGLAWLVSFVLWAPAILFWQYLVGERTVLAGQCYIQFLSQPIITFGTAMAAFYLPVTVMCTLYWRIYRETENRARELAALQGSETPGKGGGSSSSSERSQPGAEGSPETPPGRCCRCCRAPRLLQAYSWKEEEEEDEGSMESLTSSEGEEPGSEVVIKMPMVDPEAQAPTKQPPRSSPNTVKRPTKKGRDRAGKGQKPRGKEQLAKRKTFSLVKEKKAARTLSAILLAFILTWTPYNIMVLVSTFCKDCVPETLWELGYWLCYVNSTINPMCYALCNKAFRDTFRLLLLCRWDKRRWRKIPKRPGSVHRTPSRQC

[10] = target: Sodium-dependent noradrenaline transporter (Homo sapiens) (UniProt P23975); test: Displacement of [125I]RTI-55 from full-length recombinant human NET receptor expressed in MDCK cells at 10 uM measured after 3 hrs by scintillation counting method relative to control; type: cell-based

## O=c1[nH]c(N2CCC3(CC2)CN(CCO)c2cc(F)cc(F)c23)nc2c1CCCC2
Homo sapiens
  Activity: inactive
COLO 320DM
  inhibition in vivo at 150 mg/kg: 47.2%
[1]
  inhibition: > 20%
[2]
  inhibition: > 20%
MAOA
  inhibition at 1 h, 10 µM: > 20%
[3]
  inhibition: > 20%
[4]
  half-life: 2.8 h
[5]
  inhibition: > 20%
[6]
  inhibition: > 20%
[7]
  inhibition: > 20%
[8]
  fold change (FC): 4.42
[9]
  inhibition: > 20%
[10]
  inhibition: > 20%

From ChEMBL document CHEMBL4387706, “Discovery of Novel Spiroindoline Derivatives as Selective Tankyrase Inhibitors” (J Med Chem, 2019)
